Where a name gives a salt, the structure may show the parent alone. Read-outs that look alike come from different tables or passages of the source.
Assays:
phenazocine = assay: Tail-flick Antagonist Test against phenazocine; settings: for ED50: Rattus norvegicus, sc, 10 min, read-out: Subcutaneous AD50 (95% Confidence Limits) Against Phenazocine
acetylcholine = assay: Anti-acetylcholine Writhing Test; assay type: in vivo, mice; settings: subcutaneous; for ED50: Mus musculus, sc, 20 min, read-out: Subcutaneous ED50 (95% Confidence Limits)
Procedure: This response has also been called writhing. Animals are pretreated with test compounds (20 minutes for both subcutaneous and oral routes) and observed for two minutes immediately following the administration of acetylcholine. Mice not responding during the two-minute observation period are scored protected while those responding one or more times are scored not protected. Test compounds are screened at doses of 75 and 25 mg./kg. subcutaneously or 150 and 50 mg./kg. orally. […] ED50 values for active compounds are estimated by probit analysis of quantal scores for 4 or more dosage levels using 15 animals per dose. Vehicle-pretreated control animals are tested concurrently with each run of 15 experimental animals.

meperidine = assay: Tail-flick Antagonist Test against meperidine; settings: Rattus norvegicus, sc, 10 min, read-out: Subcutaneous AD50 (95% Confidence Limits) Against Meperidine

SMILES | ED50 (phenazocine) [mg/kg] | ED50 (acetylcholine; form tested not given) [mg/kg] | also measured
CC(=O)Oc1ccc2c(c1)[C@]1(C)CCN(CC3CC3)[C@H](C2=O)[C@@H]1C (relative stereo) [Example 2, 1,2,3,4,5,6-hexahydro-1-oxo-3-cyclopropylmethyl-8-acetoxy-6(eq),11(ax)-dimethyl-2,6-methano-3-benzazocine hydrochloride] | 3 |  | ED50 (acetylcholine; hydrochloride salt): 0.14 mg/kg
CCC(=O)Oc1ccc2c(c1)[C@]1(C)CCN(CC3CC3)[C@H](C2=O)[C@@H]1C (relative stereo) [Example 3, 1,2,3,4,5,6-hexahydro-1-oxo-3-cyclopropylmethyl-8-propionyloxy-6(eq),11(ax)-dimethyl-2,6-methano-3-benzazocine hydrochloride] | 6 |  | % effect (acetylcholine; 0.1 mg./kg.): 20%; % effect (acetylcholine; 1 mg./kg.): 27%; % effect (acetylcholine; 10 mg./kg.): 7%; % effect (acetylcholine; 100 mg./kg.): 47%
CCCC(=O)Oc1ccc2c(c1)[C@]1(C)CCN(CC3CC3)[C@H](C2=O)[C@@H]1C (relative stereo) [Example 4, 1,2,3,4,5,6-hexahydro-1-oxo-3-cyclopropylmethyl-8-butyryloxy-6(eq),11(ax)-dimethyl-2,6-methano-3-benzazocine hydrochloride] | 6.2 | 0.14 | 
C[C@H]1[C@H]2C(=O)c3ccc(OC(=O)C(C)(C)C)cc3[C@]1(C)CCN2CC1CC1 (relative stereo) [Example 5, 1,2,3,4,5,6-hexahydro-1-oxo-3-cyclopropylmethyl-8-pivalyloxy-6(eq),11(ax)-dimethyl-2,6-methano-3-benzazocine] | 38 | 0.06 | 
CC(C)C(=O)Oc1ccc2c(c1)[C@]1(C)CCN(CC3CC3)[C@H](C2=O)[C@@H]1C (relative stereo) [Example 6, 1,2,3,4,5,6-hexahydro-1-oxo-3-cyclopropylmethyl-8-isobutyryloxy-6(eq),11(ax)-dimethyl-2,6-methano-3-benzazocine] | 7 | 0.09 | 
CC(C)CC(=O)Oc1ccc2c(c1)[C@]1(C)CCN(CC3CC3)[C@H](C2=O)[C@@H]1C (relative stereo) [Example 7, 1,2,3,4,5,6-hexahydro-1-oxo-3-cyclopropylmethyl-8-isovaleryloxy-6(eq),11(ax)-dimethyl-2,6-methano-3-benzazocine] | 5.2 | 0.06 | 
C[C@H]1[C@H]2C(=O)c3ccc(OC(=O)CC(C)(C)C)cc3[C@]1(C)CCN2CC1CC1 (relative stereo) [Example 8, 1,2,3,4,5,6-hexahydro-1-oxo-3-cyclopropylmethyl-8-(3,3-dimethylbutanoyloxy)-6(eq),11(ax)-dimethyl-2,6-methano-3-benzazocine] |  | 0.08 | 
C[C@H]1[C@H]2C(=O)c3ccc(OC(=O)c4ccccc4)cc3[C@]1(C)CCN2CC1CC1 (relative stereo) [Example 9, 1,2,3,4,5,6-hexahydro-1-oxo-3-cyclopropylmethyl-8-benzoyloxy-6(eq),11(ax)-dimethyl-2,6-methano-3-benzazocine] | 14 | 0.07 | 
COc1ccc(C(=O)Oc2ccc3c(c2)[C@]2(C)CCN(CC4CC4)[C@H](C3=O)[C@@H]2C)cc1 (relative stereo) [Example 10, 1,2,3,4,5,6-hexahydro-1-oxo-3-cyclopropylmethyl-8-(p-anisoyloxy)-6(eq),11(ax)-dimethyl-2,4-methano-3-benzazocine] |  | 0.1 | 
COc1cccc(C(=O)Oc2ccc3c(c2)[C@]2(C)CCN(CC4CC4)[C@H](C3=O)[C@@H]2C)c1 (relative stereo) [Example 11, 1,2,3,4,5,6-hexahydro-1-oxo-3-cyclopropylmethyl-8-(m-anisoyloxy)-6(eq),11(ax)-dimethyl-2,6-methano-3-benzazocine hydrochloride] |  | 0.1 | 
Cc1ccc(C(=O)Oc2ccc3c(c2)[C@]2(C)CCN(CC4CC4)[C@H](C3=O)[C@@H]2C)cc1 (relative stereo) [Example 12, 1,2,3,4,5,6-hexahydro-1-oxo-3-cyclopropylmethyl-8-(p-toluyloxy)-6(eq),11(ax)-dimethyl-2,6-methano-3-benzazocine] |  | 0.06 | 
C[C@H]1[C@H]2C(=O)c3ccc(OC(=O)c4ccc(C(F)(F)F)cc4)cc3[C@]1(C)CCN2CC1CC1 (relative stereo) [Example 13, 1,2,3,4,5,6-hexahydro-1-oxo-3-cyclopropylmethyl-8-(p-trifluoromethylbenzoyloxy)-6(eq),11(ax)-dimethyl-2,6-methano-3-benzazocine] |  | 0.05 | 
CCCN1CC[C@@]2(C)c3cc(O)ccc3C(=O)[C@@H]1[C@@H]2C (relative stereo) [Example 15, 1,2,3,4,5,6-hexahydro-1-oxo-3-propyl-8-hydroxy-6(eq),11(ax)-dimethyl-2,6-methano-3-benzazocine] | 2.8 | 3.2 | 
C=CCN1CC[C@@]2(C)c3cc(O)ccc3C(=O)[C@@H]1[C@@H]2C (relative stereo) [Example 16, 1,2,3,4,5,6-hexahydro-1-oxo-3-allyl-8-hydroxy-6(eq),11(ax)-dimethyl-2,6-methano-3-benzazocine] | 2.2 | 1.5 | 
C=CCN1CC[C@@]2(C)c3cc(O)ccc3[C@@H](O)[C@@H]1[C@@H]2C (relative stereo) [Example 17, 1,2,3,4,5,6-hexahydro-1(eq),8-dihydroxy-3-allyl-6(eq),11(ax)-dimethyl-2,6-methano-3-benzazocine] |  | 4.8 | ED50 (meperidine): 0.98 mg/kg
C[C@H]1[C@H]2[C@H](O)c3ccc(O)cc3[C@]1(C)CCN2CC1CC1 (relative stereo) [Example 18, 1,2,3,4,5,6-hexahydro-1(eq),8-dihydroxy-3-cyclopropylmethyl-6(eq), 11(ax)-dimethyl-2,6-methano-3-benzazocine hydrochloride] |  | 10 | ED50 (meperidine): 11 mg/kg
C[C@@H]1[C@H]2C(=O)c3ccc(O)cc3[C@]1(C)CCN2CC1CC1 (relative stereo) [Example 27, 1,2,3,4,5,6-hexahydro-1-oxo-3-cyclopropylmethyl-8-hydroxy-6(eq),11(eq)-dimethyl-2,6-methano-3-benzazocine hydrochloride hemiethanolate] | 2.8 | 30 | 
CC[C@@]12CCN(CC3CC3)[C@@H](C1)C(=O)c1ccc(O)cc12 (relative stereo) [Example 28C, 1,2,3,4,5,6-hexahydro-1-oxo-3-cyclopropylmethyl-8-hydroxy-6(eq)-ethyl-2,6-methano-3-benzazocine hydrochloride] | 14 | 0.38 | 
CC[C@]12CCN(CC3CC3)[C@H](C(=O)c3ccc(O)cc31)[C@H]2C (relative stereo) [Example 30C, 1,2,3,4,5,6-hexahydro-1-oxo-3-cyclopropylmethyl-8-hydroxy-6(eq)-ethyl-11(eq)-methyl-2,6-methano-3-benzazocine hydrochloride] | 4.2 | 2.1 | 
CC[C@H]1[C@H]2C(=O)c3ccc(O)cc3[C@]1(CC)CCN2CC1CC1 (relative stereo) [Example 31C, 1,2,3,4,5,6-hexahydro-1-oxo-3-cyclopropylmethyl-8-hydroxy-6(eq),11(ax)-diethyl-2,6-methano-3-benzazocine] | 0.48 |  | ED50 (acetylcholine; methanesulfonate salt): 0.15 mg/kg
CCC[C@]12CCN(CC3CC3)[C@H](C(=O)c3ccc(O)cc31)[C@@H]2C (relative stereo) [Example 32C, 1,2,3,4,5,6-hexahydro-1-oxo-3-cyclopropylmethyl-8-hydroxy-6(eq)-propyl-11(ax)-methyl-2,6-methano-3-benzazocine] |  | 1.5 | 
CC[C@H]1[C@H]2C(=O)c3ccc(O)cc3[C@]1(C)CCN2CC1CC1 (relative stereo) [Example 33E, 1,2,3,4,5,6-hexahydro-1-oxo-3-cyclopropylmethyl-8-hydroxy-6(eq)-methyl-11-(ax)-ethyl-2,6-methano-3-benzazocine] | 0.17 | 0.47 | 
CCCN1CC[C@@]2(CC)c3cc(O)ccc3C(=O)[C@@H]1[C@@H]2C (relative stereo) [Example 36, 1,2,3,4,5,6-hexahydro-3-propyl-1-oxo-8-hydroxy-6(eq)-ethyl-11(ax)-methyl-2,6-methano-3-benzazocine methanesulfonate] | 6.2 | 1 | 
C=CCN1CC[C@@]2(CC)c3cc(O)ccc3C(=O)[C@@H]1[C@@H]2C (relative stereo) [Example 37, 1,2,3,4,5,6-hexahydro-3-allyl-1-oxo-8-hydroxy-6(eq)-ethyl-11(ax)-methyl-2,6-methano-3-benzazocine] | 6.3 | 2.3 | 
C[C@H]1[C@H]2C(=O)c3ccc(O)cc3[C@]1(C)CCN2CC1CC1 [Example 26C, 2S,6R,11R-1,2,3,4,5,6-hexahydro-1-oxo-3-cyclopropylmethyl-8-hydroxy-6(eq),11(ax)-dimethyl-2,6-methano-3-benzazocine] | 2.4 |  | ED50 (acetylcholine; methanesulfonate salt): 0.11 mg/kg
C[C@@H]1[C@@H]2C(=O)c3ccc(O)cc3[C@@]1(C)CCN2CC1CC1 [Example 26D, dextro-rotatory 2S,6R,11R-1,2,3,4,5,6-hexahydro-1-oxo-3-cyclopropylmethyl-8-hydroxy-6(eq),11(ax)-dimethyl-2,6-methano-3-benzazocine] |  |  | narcotic antagonist effect against phenazocine (phenazocine; 10 mg./kg. subcutaneously, methanesulfonic salt, in words): inactive; % effect against phenazocine (phenazocine; 80 mg./kg. subcutaneously, methanesulfonic salt): 32%; % effect (acetylcholine; 25 mg./kg., methanesulfonate salt): 33%; % effect (acetylcholine; 75 mg./kg., methanesulfonate salt): 93%

Reference: patent US4161598A, “1-Oxygenated-2,6-methano-3-benzazocines” (Sterling Drug Inc., priority 1977, dated 1979)
